The test system of experiment [1] is polymorphonuclear leucocytes (PMNL). As to the kind of experiment: Test 1: Release of proteolytic activity from human PMNL. To be noted: Homo sapiens, PMNL, read-out: Test 1 residual activity (release of proteolytic activity), percent of control. The format is cell-based. An outline of the steps: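 Human peripheral-blood PMNL (5·10^6 cells/ml in PBS with 7.5 mM glucose) preincubated 20 min at 37° C. with compound, then primed with cytochalasin B (5 μg/ml) and TNF (30 ng/ml), and stimulated with fMLP (10 nmol/l) for 60 min. Released protease in supernatant read with methoxysuccinyl-nitroanilide substrate at 405 nm over 0-60 min, pH 7.5.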

The test system is the same in experiment [2]. Kind of experiment: Test 2: Release of oxygen radicals from human PMNL. Format: cell-based. To be noted: read-out: Test 2 residual activity (release of oxygen radicals), percent of control. As to the method:
Isolation of polymorphonuclear leucocytes (PMNL) from human peripheral blood for carrying out tests 1 and 2 10 ml of human blood were diluted with 10 ml of HBSS (Serva) and underlaid with 15 ml of Lymphoprep (Dr. Molter GmbH, Heidelberg). The sample was then centrifuged for 25 minutes at 400×g (1600 revolutions per minute, Minifuge 2, Heraeus, Osterode). […] A white ring, composed of mononuclear cells, is located between these two phases. The lowermost phase is composed of erythrocytes which are covered with a white layer of PMNL. The uppermost phase, and also the Lymphoprep and the white ring, were carefully removed using a syringe. The remaining sediment was carefully resuspended in 15 ml of 3% dextran in PM16 (mw: 485,000, Sigma, Deisenhofen). The suspension was then left to stand at room temperature for one hour. During this time, the erythrocytes sedimented while the PMNL remained in the supernatant. The supernatant was removed, diluted with an approximately equal volume of PM16, and centrifuged for 15 minutes at 400×g. Should the PMNL sediment be heavily contaminated with erythrocytes, it is necessary to carry out a hypotonic lysis. To do this, the sediment was resuspended in 750 μl of water. After exactly 15 seconds, the suspension was diluted with approximately 7 ml of PM16 and centrifuged for 10 minutes at 400×g. If necessary, this lysis was repeated once more. Otherwise, the PMNL sediment was resuspended in a suitable medium.
The PMNL were resuspended (5·10^6 cells/ml) in Dulbecco's PBS, supplemented with 7.5 mM glucose. Care must be taken to ensure that the PMNL are free of erythrocytes. 100 μl of PMNL, 700 μl of PBS+glucose and 100 μl of cytochrome C (9.38 mg/ml of PBS+glucose) were mixed in a semi-microcuvette. 100 μl of PMNL, 500 μl of PBS+glucose, 100 μl of cytochalasin B ([…]), 100 μl of TNF (0.05 ng) and 100 μl of cytochrome C (9.38 mg/ml of PBS+glucose) were mixed for the fMLP-induced release of oxygen. Measurements were made in a double-beam photometer meter (Perkin-Elmer 552 S) at a wavelength of 550 nm. The measurement range is 0-1 extinction units. The cuvettes were temperature-equilibrated to 37° C. The reference cuvette additionally contained 10 μl of SOD (6 mg of SOD/ml of PBS+glucose). Following a preincubation of 5 minutes, the reaction is started with 100 μl of inducer. The reaction is started with 1·10^-7 mol of fMLP.
The values in the table show the concentration of the test substance which was employed in μM and, besides this, the residual activity measured in percent based on the control, which was set to be 100%. The interleukin is additionally indicated in test 4.

The structures appear in SMILES notation.

In the case of `CC(C)(C)c1cc(C2CC(CCC(=O)O)=NO2)cc(C(C)(C)C)c1O` (stereo not shown) [Example 63, 5-(4-Hydroxy-3,5-di-tert-butylphenyl)-2-isoxazolin-3-ylpropionic acid], in experiment [1], the activity at 10 µM is 88% and the activity at 100 µM is 66%. In experiment [2], the activity at 50 µM came out at 79%.

With `CC(C)(C)c1cc(C2=NOC(c3ccccn3)C2)cc(C(C)(C)C)c1O` (stereo not shown) [Example 9], the activity at 100 µM in experiment [1] amounted to 64%.

As to `CCOC(=O)CNC(=O)OCCCc1cc(-c2cc(C(C)(C)C)c(O)c(C(C)(C)C)c2)no1` [Example 41, N-(3-(4-Hydroxy-3,5-di-tert-butylphenyl)isoxazol-5-ylpropoxycarbonyl)glycine ethyl ester], in experiment [1], the activity at 100 µM was determined as 78%. In experiment [2], the activity at 5 µM came out at 75% and the activity at 50 µM amounted to 36%.

For `CC(O)c1cc(-c2cc(C(C)(C)C)c(O)c(C(C)(C)C)c2)no1` (stereo not shown) [Example 28], in experiment [1], the activity at 1 µM worked out at 97% and the activity at 10 µM was found to be 59%. In addition, in experiment [2] (10 μM), the activity at 10 µM is 60%. For the same compound, the activity at 25 µM in experiment [2] (25 μM) is 8%.

As to `CC(C)(C)c1cc(-c2cc(CNS(=O)(=O)C(F)(F)F)on2)cc(C(C)(C)C)c1O` [Example 49, N-(3-(4-Hydroxy-3,5-di-tert-butylphenyl)isoxazol-5-ylmethyl)trifluoromethanesulfonamide], in experiment [1], the activity at 1 µM amounted to 88%, the activity at 10 µM is 23% and the activity at 100 µM was 19%. For the same compound, in experiment [2], the activity at 5 µM was 80% and the activity at 50 µM is 12%.

For the origin of these results see patent US5814627A, “3, 5-disubstituted and 3, 4, 5-trisubstituted 2-isoxazolines and isoxazoles, process for their preparation and their use as pharmaceuticals” (Hoechst Aktienegesellschaft, priority 1994, dated 1998).
